Laboratory results: ChEMBL document CHEMBL3885861, “Open TG-GATES”

Species: Rattus norvegicus
Test: Open TG-GATES - Regimen: Single
Format: toxicity, organism-based, Sprague-Dawley
Set-up: regimen Single, gender Male, age 6 weeks
Conditions: in vivo, iv, route intravenous injection; for MCV / Mono / Neu / PT / Plat / RBC / Ret / WBC / APTT / Bas / Eos / Fbg / Ht / Lym / Hb / MCH / MCHC: tissue Blood; for KIDNEY_L / KIDNEY_R / KIDNEY_TOTAL: tissue Kidney; for LIVER: tissue Liver
[1] = 30 mg/kg, 3 h, dose level Middle
[2] = 30 mg/kg, 3 h, tissue Plasma, dose level Middle
[3] = 30 mg/kg, 6 h, dose level Middle
[4] = 30 mg/kg, 6 h, tissue Plasma, dose level Middle
[5] = 30 mg/kg, 9 h, dose level Middle
[6] = 30 mg/kg, 9 h, tissue Plasma, dose level Middle
[7] = 30 mg/kg, 24 h, dose level Middle
[8] = 30 mg/kg, 24 h, tissue Plasma, dose level Middle
[9] = 100 mg/kg, 3 h, dose level High
[10] = 100 mg/kg, 3 h, tissue Plasma, dose level High
[11] = 100 mg/kg, 6 h, dose level High
[12] = 100 mg/kg, 6 h, tissue Plasma, dose level High
[13] = 100 mg/kg, 9 h, dose level High
[14] = 100 mg/kg, 9 h, tissue Plasma, dose level High
[15] = 100 mg/kg, 24 h, dose level High
[16] = 100 mg/kg, 24 h, tissue Plasma, dose level High

## GENTAMICIN
[1]
  MCV: 62.9 fL
  Mono: 3.2%
  Neu: 16.4%
  PT: 16.2 s
  Plat: 131.2 x10_4/uL
  RBC: 626.2 x10_4/ul
  Ret: 6.5%
  WBC: 81.8 x10_2/uL
  KIDNEY_L: 0.9 g
  KIDNEY_R: 0.9 g
  KIDNEY_TOTAL: 1.8 g
  LIVER: 9.6 g
[2]
  ALT: 42.6 IU/L
  AST: 82.2 IU/L
  CRE: 0.1 mg/dL
  DBIL: 0.004 mg/dL
  GLC: 182 mg/dL
  IP: 8.1 mg/dL
  K: 4.3 meq/L
  LDH: 251.4 IU/L
  PL: 133.2 mg/dL
  RALB: 2.9 g/dL
  TBIL: 0.02 mg/dL
  TC: 62.4 mg/dL
  TG: 99.2 mg/dL
  TP: 5.3 g/dL
  gamma-GTP: 1.4 IU/L
[3]
  TERMINAL_BW: 210.3 g
  APTT: 23.2 s
  Bas: 0%
  Eos: 0.4%
  Fbg: 291.6 mg/dL
  Ht: 39.5%
  Lym: 77.6%
  MCV: 62 fL
  Mono: 3.4%
  PT: 16 s
  Plat: 119.1 x10_4/uL
  RBC: 636.4 x10_4/ul
  Ret: 6.3%
  WBC: 117 x10_2/uL
  KIDNEY_L: 0.9 g
  KIDNEY_R: 1 g
  KIDNEY_TOTAL: 1.9 g
  LIVER: 8.7 g
[4]
  ALP: 1316 IU/L
  ALT: 35 IU/L
  AST: 68.8 IU/L
  BUN: 9.4 mg/dL
  CRE: 0.1 mg/dL
  DBIL: 0.002 mg/dL
  GLC: 177.2 mg/dL
  IP: 9 mg/dL
  K: 4.3 meq/L
  PL: 139.4 mg/dL
  RALB: 3 g/dL
  TBIL: 0.024 mg/dL
  TC: 74.6 mg/dL
  TG: 84.4 mg/dL
  TP: 5.3 g/dL
  gamma-GTP: 1 IU/L
[5]
  TERMINAL_BW: 213 g
  APTT: 24 s
  Bas: 0%
  Eos: 1%
  Fbg: 294.6 mg/dL
  Hb: 13 g/dL
  Ht: 38.6%
  Lym: 77.4%
  MCH: 21 pg
  MCHC: 33.6%
  Mono: 3%
  Neu: 17.2%
  PT: 16.2 s
  Plat: 122.8 x10_4/uL
  RBC: 617.4 x10_4/ul
  Ret: 5.8%
  WBC: 109.5 x10_2/uL
  KIDNEY_L: 1 g
  KIDNEY_R: 1 g
  KIDNEY_TOTAL: 2 g
  LIVER: 8.5 g
[6]
  ALP: 1266.6 IU/L
  ALT: 34.4 IU/L
  AST: 72 IU/L
  BUN: 10.8 mg/dL
  CRE: 0.1 mg/dL
  DBIL: 0.002 mg/dL
  GLC: 175.2 mg/dL
  IP: 9.5 mg/dL
  K: 4.4 meq/L
  LDH: 134.6 IU/L
  Na: 144.2 meq/L
  PL: 134.2 mg/dL
  RALB: 2.9 g/dL
  TBIL: 0.022 mg/dL
  TC: 73.8 mg/dL
  TG: 49.4 mg/dL
  TP: 5.2 g/dL
  gamma-GTP: 1.6 IU/L
[7]
  TERMINAL_BW: 228.1 g
  APTT: 22.7 s
  Bas: 0%
  Eos: 0.8%
  Fbg: 295.4 mg/dL
  Hb: 12.9 g/dL
  Ht: 38%
  Lym: 76.6%
  MCHC: 34%
  MCV: 61.3 fL
  Mono: 4%
  Neu: 18%
  PT: 16.4 s
  Plat: 115.7 x10_4/uL
  RBC: 621.4 x10_4/ul
  Ret: 6%
  WBC: 112.3 x10_2/uL
  KIDNEY_L: 1 g
  KIDNEY_R: 1 g
  KIDNEY_TOTAL: 2 g
  LIVER: 10.2 g
[8]
  ALP: 1367.4 IU/L
  ALT: 41.4 IU/L
  BUN: 15.6 mg/dL
  CRE: 0.2 mg/dL
  DBIL: 0.004 mg/dL
  IP: 7.2 mg/dL
  K: 4.1 meq/L
  LDH: 137.2 IU/L
  PL: 153.2 mg/dL
  RALB: 3 g/dL
  TBIL: 0.02 mg/dL
  TC: 81.4 mg/dL
  TG: 101.6 mg/dL
  TP: 5.4 g/dL
  gamma-GTP: 1 IU/L
[9]
  TERMINAL_BW: 221.2 g
  APTT: 22.7 s
  Bas: 0%
  Eos: 1%
  Fbg: 284 mg/dL
  Ht: 37.3%
  Lym: 72%
  MCV: 63.9 fL
  Mono: 3%
  Neu: 23.3%
  Plat: 123.5 x10_4/uL
  RBC: 584 x10_4/ul
  Ret: 6.4%
  WBC: 86 x10_2/uL
  KIDNEY_L: 1 g
  KIDNEY_R: 1 g
  KIDNEY_TOTAL: 1.9 g
  LIVER: 9.9 g
[10]
  ALP: 1392.3 IU/L
  ALT: 41.3 IU/L
  AST: 82.7 IU/L
  BUN: 13 mg/dL
  CRE: 0.1 mg/dL
  Ca: 11 mg/dL
  DBIL: 0.0067 mg/dL
  GLC: 177.3 mg/dL
  IP: 7.9 mg/dL
  K: 4.1 meq/L
  LDH: 155.3 IU/L
  PL: 129.7 mg/dL
  RALB: 2.8 g/dL
  TBIL: 0.03 mg/dL
  TC: 69.3 mg/dL
  TG: 71.7 mg/dL
  TP: 5.2 g/dL
  gamma-GTP: 1 IU/L
[11]
  TERMINAL_BW: 211.7 g
  APTT: 24.2 s
  Bas: 0%
  Eos: 0.8%
  Fbg: 292 mg/dL
  Ht: 39.4%
  Lym: 74.2%
  MCH: 21 pg
  MCHC: 33.9%
  MCV: 61.9 fL
  Mono: 3.6%
  Neu: 20.6%
  PT: 15.9 s
  Plat: 126.2 x10_4/uL
  RBC: 637 x10_4/ul
  Ret: 6.6%
  WBC: 92.6 x10_2/uL
  KIDNEY_L: 0.9 g
  KIDNEY_R: 0.9 g
  KIDNEY_TOTAL: 1.8 g
  LIVER: 8.4 g
[12]
  ALP: 1407.2 IU/L
  ALT: 34.8 IU/L
  AST: 67.6 IU/L
  CRE: 0.1 mg/dL
  DBIL: 0.004 mg/dL
  GLC: 176.2 mg/dL
  IP: 9 mg/dL
  K: 4.7 meq/L
  LDH: 165.8 IU/L
  PL: 144.4 mg/dL
  RALB: 2.9 g/dL
  TBIL: 0.02 mg/dL
  TG: 98.6 mg/dL
  TP: 5.2 g/dL
  gamma-GTP: 1.2 IU/L
[13]
  TERMINAL_BW: 211.4 g
  APTT: 22.4 s
  Bas: 0%
  Eos: 0.8%
  Fbg: 296.4 mg/dL
  Hb: 12.9 g/dL
  Ht: 38.7%
  Lym: 80.6%
  MCH: 20.6 pg
  MCHC: 33.3%
  MCV: 61.9 fL
  Mono: 3.2%
  Plat: 120.1 x10_4/uL
  RBC: 625.2 x10_4/ul
  Ret: 6.4%
  WBC: 76.1 x10_2/uL
  KIDNEY_L: 0.9 g
  KIDNEY_R: 1 g
  KIDNEY_TOTAL: 1.9 g
  LIVER: 8.6 g
[14]
  ALP: 1221 IU/L
  ALT: 30.8 IU/L
  AST: 65.6 IU/L
  BUN: 12.8 mg/dL
  CRE: 0.1 mg/dL
  Ca: 11 mg/dL
  DBIL: 0.002 mg/dL
  GLC: 174.6 mg/dL
  IP: 9.4 mg/dL
  K: 4.7 meq/L
  LDH: 145.2 IU/L
  PL: 144 mg/dL
  RALB: 2.9 g/dL
  TBIL: 0.016 mg/dL
  TC: 77 mg/dL
  TG: 70.4 mg/dL
  TP: 5.3 g/dL
  gamma-GTP: 1 IU/L
[15]
  TERMINAL_BW: 225.5 g
  APTT: 23.2 s
  Bas: 0%
  Eos: 1%
  Fbg: 301.2 mg/dL
  Hb: 13.6 g/dL
  Ht: 39.5%
  Lym: 77.4%
  MCHC: 34.4%
  MCV: 60.8 fL
  Mono: 4.8%
  PT: 16.4 s
  Plat: 122.8 x10_4/uL
  RBC: 649.4 x10_4/ul
  Ret: 5.4%
  WBC: 96.8 x10_2/uL
  KIDNEY_L: 1 g
  KIDNEY_R: 1 g
  KIDNEY_TOTAL: 2 g
  LIVER: 9.6 g
[16]
  ALP: 1293.2 IU/L
  ALT: 37.8 IU/L
  AST: 66.4 IU/L
  CRE: 0.1 mg/dL
  DBIL: 0.002 mg/dL
  GLC: 186.4 mg/dL
  IP: 7.7 mg/dL
  K: 4.2 meq/L
  LDH: 159.2 IU/L
  PL: 162.4 mg/dL
  RALB: 3.1 g/dL
  TBIL: 0.018 mg/dL
  TC: 82.4 mg/dL
  TG: 110.2 mg/dL
  TP: 5.5 g/dL
  gamma-GTP: 1.2 IU/L
